This is an account of results in ChEMBL document CHEMBL1201862, “PubChem BioAssay data set” (2004).

Molecules are shown by their SMILES.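 Following 48 hours of exposure in 96-well plates, responses at five concentrations were used to interpolate endpoints linearly. Here, GI50 denotes the concentration required for 50% inhibition of growth.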 Calls of active or inactive are those of the source. No stated cut-off is given here; in the data, active = GI50 up to about 1.1 µM and inactive = higher.

Holding throughout (assay): NCI tumour cell line growth inhibition, 48 h
The subject of assay [1] is OVCAR-8.
Assay [2] concerns TK-10.
Assay [3] concerns HCT-116.
The subject of assay [4] is UACC-257.
Assay [5] concerns SK-MEL-5.
The test system of assay [6] is RPMI-8226.
In assay [7] the test system is SF-268.
In assay [8] the test system is SN12C.
Assay [9] concerns LOX IMVI.
The test system of assay [10] is EKVX.
Assay [11] has as its system HCT-15.
The subject of assay [12] is SNB-19.
Assay [13] concerns SR.
Assay [14] relates to U-251.
The test system of assay [15] is PC-3.
The subject of assay [16] is T47D.
Assay [17] relates to MDA-MB-231.
Assay [18] concerns MCF7.
In assay [19] the test system is MDA-MB-435.

`COc1cc(/C=C2\C(=O)N(C(=O)Cc3ccccc3)N=C2C)ccc1O`: the GI50 was > 100 µM (inactive) in assay [1]; > 100 µM (inactive) in [2]; > 100 µM (inactive) in assay [3]; > 100 µM (inactive) in assay [4]; 3.01 µM (inactive) in [5]; > 100 µM (inactive) in assay [6]. In addition, the GI50 in assay [7] was > 100 µM (inactive); in assay [8], > 100 µM (inactive); in [9] it was > 100 µM (inactive); in [10] it was > 100 µM (inactive); in [11], greater than 100 µM; in [12] it was > 100 µM (inactive). The GI50 in assay [13] is > 100 µM (inactive).

Take `NC(=S)N/N=C/c1nccc2ccccc12`: the GI50 in assay [1] is 0.313 µM (active); in assay [2] it was 4.93 µM (inactive); in assay [3], 0.914 µM (active); in assay [5], 0.467 µM (active); in assay [6], 1.22 µM (inactive); in assay [14] it was 0.296 µM (active). Further, the GI50 in assay [7] is 0.377 µM (active); in assay [8] it was 0.682 µM (active); in assay [9], 0.322 µM (active); in assay [11] it was 0.975 µM; in assay [12], 0.948 µM (active); in [13], 0.664 µM (active).

Take `CC1(C)CC(/C=C2/OC(=O)c3ccccc32)=C(C#N)C(=O)O1`: the GI50 in assay [1], in [3], in assay [4], in [5], in [6] and in assay [14] was > 100 µM (inactive) in each case. The GI50 is > 100 µM (inactive) in assay [7]; > 100 µM (inactive) in [8]; > 100 µM (inactive) in assay [9]; > 100 µM (inactive) in assay [10]; greater than 100 µM in assay [11]; > 100 µM (inactive) in [12]. Besides, the GI50 in [13] was > 100 µM (inactive).

For `COC(=O)c1cncc2c1CC1C3(C(=O)OC)C=NC(C4C(CO)=CCC43)C21C` (centres undefined), the GI50 in assay [1], in assay [15], in [16], in assay [2], in assay [3] and in assay [4] was > 100 µM (inactive) in each case. Also, the GI50 in assay [5], in assay [17], in assay [14], in assay [7], in assay [8] and in [18] was > 100 µM (inactive) throughout. In addition, the GI50 was > 100 µM (inactive) in assay [9]; > 100 µM (inactive) in assay [10]; greater than 100 µM in assay [11]; > 100 µM (inactive) in assay [19]; > 100 µM (inactive) in [12]; > 100 µM (inactive) in assay [13].

As for `CC/C(CC(=O)CCC(=O)Nc1ccccc1[N+](=O)[O-])=N/NC(=O)C[n+]1ccccc1`, the GI50 in [1], in assay [2], in assay [3], in assay [4], in [5] and in assay [6] was > 100 µM (inactive) each time. The GI50 is > 100 µM (inactive) in assay [14]; > 100 µM (inactive) in assay [7]; > 100 µM (inactive) in assay [8]; > 100 µM (inactive) in assay [9]; > 100 µM (inactive) in [10]; greater than 100 µM in [11]. Besides, the GI50 in assay [12] and in assay [13] was > 100 µM (inactive) each time.

Regarding `CC1=CP(=O)(OC(C)C)C=C(C)C1=C(Cl)Cl` (centres undefined), the GI50 in [1] is 68.7 µM (inactive); in assay [2], > 100 µM (inactive); in assay [3] it was 24.9 µM (inactive); in assay [4], 32.2 µM (inactive); in [5], 30.8 µM (inactive); in assay [6], 32.7 µM (inactive). Further, the GI50 in assay [14] is 35.7 µM (inactive); in assay [7], > 100 µM (inactive); in assay [8] it was 36.1 µM (inactive); in assay [9], 57 µM (inactive); in assay [10] it was > 100 µM (inactive); in assay [11], 46 µM. Also, the GI50 in assay [12] is > 100 µM (inactive); in assay [13], 35.5 µM (inactive).

As for `C=CC/N=C1\N=C(C)C(C(=O)OCC)S1` (centres undefined), the GI50 in assay [1], in assay [2], in assay [3], in assay [4], in [5] and in [6] was > 100 µM (inactive) each time. For the same compound, the GI50 is > 100 µM (inactive) in [14]; > 100 µM (inactive) in [7]; > 100 µM (inactive) in assay [8]; > 100 µM (inactive) in assay [9]; > 100 µM (inactive) in assay [10]; greater than 100 µM in assay [11]. The GI50 in assay [12] and in assay [13] was > 100 µM (inactive) in each case.

With `NC(=O)c1cc(N(CCO)CCO)c([N+](=O)[O-])cc1[N+](=O)[O-]`, the GI50 in assay [15], in [16], in [2], in [3], in [4] and in [5] was > 100 µM (inactive) throughout. Moreover, the GI50 in assay [6], in assay [14], in assay [7], in [8], in assay [18] and in [9] was > 100 µM (inactive) each time. Besides, the GI50 in assay [10] was > 100 µM (inactive); in assay [11] it was greater than 100 µM; in [19], > 100 µM (inactive); in assay [12], > 100 µM (inactive); in [13], > 100 µM (inactive).

On to `O=C1C(C2=[N+]([O-])c3ccccc3C2=O)=[N+]([O-])c2ccccc21`, for which the GI50 in assay [1] was 24.7 µM (inactive); in assay [2] it was 35.4 µM (inactive); in [5], 17.8 µM (inactive); in [6] it was 20.2 µM (inactive); in assay [14], 20.4 µM (inactive); in [7] it was 28.2 µM (inactive). For the same compound, the GI50 in assay [9] was 15.6 µM (inactive); in assay [10] it was 16.6 µM (inactive); in [12] it was 46.7 µM (inactive); in assay [13], 22.5 µM (inactive).

In the case of `Cc1cc(O)nc(NNC(C#N)c2ccco2)n1` (centres undefined), the GI50 in assay [1], in [2], in [3], in assay [4], in [5] and in [6] was > 100 µM (inactive) each time. In addition, the GI50 was > 100 µM (inactive) in [14]; > 100 µM (inactive) in assay [7]; > 100 µM (inactive) in [8]; > 100 µM (inactive) in assay [9]; greater than 100 µM in assay [11]; > 100 µM (inactive) in assay [13].

Regarding `CC(C)(c1ccc(Oc2ccc(C#N)c(C#N)c2)cc1)c1ccc(Oc2ccc(C#N)c(C#N)c2)cc1`, the GI50 in assay [1], in assay [2], in assay [3], in assay [4], in [5] and in assay [6] was > 10 µM (inactive) in each case. The GI50 in [14] was > 10 µM (inactive); in assay [7], > 10 µM (inactive); in [8] it was > 10 µM (inactive); in assay [9] it was > 10 µM (inactive); in [10] it was > 10 µM (inactive); in assay [11], greater than 10 µM. In addition, the GI50 in assay [12] and in assay [13] was > 10 µM (inactive) in each case.

As to `C[Si]1(C)C(c2ccccc2)=CC2C(c3ccccc3)(c3ccccc3)OC21c1ccccc1` (centres undefined), the GI50 was > 100 µM (inactive) in [2]; 28.2 µM (inactive) in assay [3]; > 100 µM (inactive) in assay [4]; 63.7 µM (inactive) in assay [5]; 30.1 µM (inactive) in [6]; > 100 µM (inactive) in assay [14]. In addition, the GI50 in assay [7] was > 100 µM (inactive); in assay [8], > 100 µM (inactive); in [9], > 100 µM (inactive); in assay [10], > 100 µM (inactive); in assay [11], greater than 100 µM; in [12] it was > 100 µM (inactive). In addition, in assay [13], the GI50 was 29.4 µM (inactive).

For the compound `O=c1[nH]nc(-c2ccccc2)n1Nc1ccccc1`, the GI50 in [1], in assay [16], in [2], in [3], in [4] and in [5] was > 100 µM (inactive) throughout. Moreover, the GI50 in [6], in assay [17], in assay [14], in assay [7], in assay [8] and in [9] was > 100 µM (inactive) in each case. For the same compound, the GI50 is > 100 µM (inactive) in assay [10]; greater than 100 µM in assay [11]; > 100 µM (inactive) in [19]; > 100 µM (inactive) in assay [12]; > 100 µM (inactive) in assay [13].

On to `O=C1N[C@@H](COc2ccc(/C=N/c3ccc(CCc4ccc(/N=C/c5ccc(OC[C@@H]6COC(=O)N6)cc5)cc4)cc3)cc2)CO1`, for which the GI50 in assay [1], in [15], in assay [16], in assay [2], in assay [3] and in assay [4] was > 100 µM (inactive) in each case. The GI50 in assay [5], in assay [6], in [17], in assay [14], in assay [7] and in assay [8] was > 100 µM (inactive) in each case. In addition, the GI50 in assay [9] was > 100 µM (inactive); in assay [10], > 100 µM (inactive); in assay [11], greater than 100 µM; in assay [19] it was > 100 µM (inactive); in [12] it was > 100 µM (inactive); in assay [13] it was > 100 µM (inactive).
